One data set deals with SMN2. Nature of the data set: Quantitative splicing assay (SMN) in SMA patient fibroblasts GM03813. Conditions: Homo sapiens, Fibroblast, SMA patient fibroblasts GM03813, 24 h; for IC50: read-out: SMN2 Potency - Splicing: Splicing D7 IC50 (average); for EC50: read-out: SMN2 Potency - Splicing: Splicing FL EC50 (average). The class given is cell-based. How it is done:
Spinal muscular atrophy (SMA) patient fibroblasts (GM03813, Coriell) are plated in 96-well plates at 50,000 cells/well. Immediately after plating, cells are dosed with compounds for 24 h at concentrations ranging from 2.5 μM to 0.6 nM (0.1% DMSO). Treated cells are lysed and cDNA synthesized using the Fast Advanced Cells-to-Ct kit (Thermofisher A35378) according to the manufacturer's instructions. 2 μL of each cDNA are used in qPCR reactions. The qPCR reactions are prepared in 384-well plates in 10 μL volume, using TaqMan™ Fast Advanced Master Mix (ThermoFisher; 4444965) with primers and probes shown in the table below. Reactions are run in a Quant Studio 6 qPCR instrument with default settings.
It is to be understood that the absolute stereochemistry for compounds of Table 3 is not determined.

The next data set concerns SMN protein. The data set is described as follows: SMN protein assay (MSD) in SMA patient fibroblasts GM03813. The settings on record: SMA patient fibroblasts GM03813, 48 hours. The class given is cell-based. How it is done:
Compounds were tested on spinal muscular atrophy (SMA) patient fibroblasts (GM03813, Coriell) at doses ranging from 2.5 μM to 0.6 nM. 7000 cells/well were seeded in 96-well plates. Compounds were incubated for 48 hours and the cells were lysed with 100 μL of lysis buffer. 20 μL of lysate was used for SMN protein measurement by Mesoscale Discovery (MSD) assay developed by PharmOptima (Michigan). A standard curve prepared with SMN protein ranging from 1 μg/ml to 19.5 pg/ml was used in each MSD plate to calculate the absolute SMN protein amount in each sample.

Data set [1] deals with MDR1-MDCK cell monolayers. Nature of the data set: MDCK-MDR1 permeability assay (BBB penetration potential). The data set is classed as in vitro ADME. Conditions: 5 μM, 120 minutes; for MDCK-MDR1: % Recov A-B / MDCK-MDR1: % Recov B-A: pH 7.4; for MDCK MDRP1 Efflux Ratio: Papp (B-to-A)/Papp (A-to-B), separated enantiomers, told apart by chiral retention time. Here is the method:
(§1) Each determination is performed in duplicate. […] Analytical conditions are outlined below.
(§2) Papp=(dCr/dt)×Vr/(A×CA) (1)

For the next data set, the system named is MDR1. The description is as above. The class given is in vitro ADME. The settings on record: dog; for Papp A→B at 120 min, 5 μM / Papp B→A at 120 min, 5 μM: MDCK-MDR1, pH 7.4. Here is the method: as §1, §2
[2] abbreviates: Fibroblast, 48 h, read-out: SMN2 Potency - Protein: Protein FL EC50 (average).
Setting [3] is: MDCK-MDR1, pH 7.4, Papp (B-to-A)/Papp (A-to-B), read-out: MDCK-MDR1: Efflux.
The mark [4] stands for this setting: MDCK-MDR1, pH 7.4, Papp (B-to-A)/Papp (A-to-B), 5 μM, 120 minutes, separated enantiomers, told apart by chiral retention time, read-out: MDCK MDRP1 Efflux Ratio.

Molecules are shown by their SMILES. Like-named read-outs stand apart in the source and are kept apart here.

For `CN(c1nnc(-c2cc(F)c(-c3cnn(C)c3)cc2O)s1)[C@H]1C[C@@H]2CC[C@@H](N2)[C@H]1F` (single isomer, unassigned) [Compound E-9A], in the data set on SMN2, the IC50 fell in the range of 51 to 100 nM and the concentration for a half-maximal effect (EC50) is 101 to 500 nM. In addition, the EC50 with SMN protein (setting [2]) fell in the range of 51 to 100 nM. Besides, in data set [1], the “MDCK-MDR1: % Recov A-B” value is 51% and the “MDCK-MDR1: % Recov B-A” value came to 68%. The efflux ratio at 120 min, 5 μM with MDR1 (setting [3]) amounted to 6. Further, in the data set on MDR1 (5 μM, 120 minutes), the Papp A→B at 120 min, 5 μM came to 5.87 ×10⁻⁶ cm/s and the Papp B→A at 120 min, 5 μM turned out to be 36.3 ×10⁻⁶ cm/s.
Regarding `CN(c1nnc(-c2ccc(-c3cnn(CF)c3)cc2O)s1)[C@@H]1C[C@H]2CC[C@H](N2)[C@@H]1F` (single isomer, unassigned) [Compound E-10B], in the data set with SMN2, the IC50 fell in the range of 16 to 50 nM and the EC50 was 16 to 50 nM. Also, in the data set on SMN protein (setting [2]), the EC50 fell in the range of 0.01 to 15 nM. Moreover, in data set [1], the “MDCK-MDR1: % Recov A-B” value was 72% and the “MDCK-MDR1: % Recov B-A” value is 73%. The efflux ratio at 120 min, 5 μM in the data set on MDR1 (setting [3]) worked out at 6. In the data set on MDR1 (5 μM, 120 minutes), this molecule had a Papp A→B at 120 min, 5 μM of 7.85 ×10⁻⁶ cm/s and an apparent permeability from basolateral to apical (Papp B→A) at 120 min, 5 μM of 48.9 ×10⁻⁶ cm/s.
In the case of `CN(c1nnc(-c2ccc(-c3ccn(C)c(=O)c3)cc2O)s1)[C@@H]1C[C@H]2CC[C@H](N2)[C@@H]1F` (racemic) [4A/4B, 4-[4-(5-{[(1S,2S,3R)-2-fluoro-8-azabicyclo[3.2.1]octan-3-yl](methyl)amino}-1,3,4-thiadiazol-2-yl)-3-hydroxyphenyl]-1-methyl-1,2-dihydropyridin-2-one and 4-[4-(5-{[(2R,3S,5S)-2-fluoro-8-azabicyclo[3.2.1]octan-3-yl](methyl)amino}-1,3,4-thiadiazol-2-yl)-3-hydroxyphenyl]-1-methyl-1,2-dihydropyridin-2-one], the EC50 was 51 to 100 nM in the data set on SMN protein (Fibroblast, 48 h, separated enantiomers, told apart by chiral retention time, read-out: SMN EC50) and 101 to 500 nM in the data set with SMN protein (separated enantiomers, told apart by chiral retention time, read-out: SMN EC50). Also, the “MDCK MDRP1 Efflux Ratio” value in data set [1] was determined as 40. In addition, the efflux ratio at 120 min, 5 μM in the data set with MDR1 (setting [4]) was 54.
With `CN(c1nnc(-c2ccc(-c3cnn(C)c3)cc2O)s1)[C@@H]1C[C@H]2CC[C@H](N2)[C@@H]1F` [Compound E-3B, 2-(5-(((1S,2S,3R,5R)-2-fluoro-8-azabicyclo[3.2.1]octan-3-yl)(methyl)amino)-1,3,4-thiadiazol-2-yl)-5-(1-methyl-1H-pyrazol-4-yl)phenol], in the data set with SMN2, the IC50 is 0.01 to 15 nM and the EC50 was in the range of 16 to 50 nM. Also, the concentration for a half-maximal effect (EC50) with SMN protein (setting [2]) was in the range of 0.01 to 15 nM. Besides, in data set [1], the “MDCK-MDR1: % Recov A-B” value came to 80% and the “MDCK-MDR1: % Recov B-A” value stood at 89%. Besides, in the data set on MDR1 (setting [3]), the efflux ratio at 120 min, 5 μM stood at 5. In addition, in the data set with MDR1 (5 μM, 120 minutes), the Papp A→B at 120 min, 5 μM is 11.2 ×10⁻⁶ cm/s and the Papp B→A at 120 min, 5 μM came to 51.1 ×10⁻⁶ cm/s.
Take `COc1cc(-c2ccc(-c3nnc(N(C4CC4)[C@H]4C[C@@H]5CC[C@@H](N5)[C@H]4F)s3)c(O)c2)cc(F)n1` [Compound E-2B, 2-(5-(cyclopropyl((1R,2R,3S,5S)-2-fluoro-8-azabicyclo[3.2.1]octan-3-yl)amino)-1,3,4-thiadiazol-2-yl)-5-(2-fluoro-6-methoxypyridin-4-yl)phenol]: in the data set on SMN2, the IC50 is 16 to 50 nM and the concentration for a half-maximal effect (EC50) fell in the range of 51 to 100 nM. In the data set on SMN protein (setting [2]), the concentration giving a half-maximal response (EC50) lay in the range of 0.01 to 15 nM. Also, in data set [1], the “MDCK-MDR1: % Recov A-B” value was 16% and the “MDCK-MDR1: % Recov B-A” value amounted to 44%. In addition, the efflux ratio at 120 min, 5 μM with MDR1 (setting [3]) stood at 5. Besides, in the data set with MDR1 (5 μM, 120 minutes), the Papp A→B at 120 min, 5 μM is 1.87 ×10⁻⁶ cm/s and the apparent permeability from basolateral to apical (Papp B→A) at 120 min, 5 μM came out at 9.89 ×10⁻⁶ cm/s.
`CN(c1nnc(-c2ccc(-c3cn[nH]c3)cc2O)s1)[C@@H]1C[C@H]2CC[C@H](N2)[C@@H]1F` (single isomer, unassigned) [Compound E-7B]: in the data set on SMN2, the IC50 lay in the range of 0.01 to 15 nM and the EC50 was in the range of 0.01 to 15 nM. Moreover, the 50% effective concentration (EC50) in the data set on SMN protein (setting [2]) lay in the range of 0.01 to 15 nM. In data set [1], the “MDCK-MDR1: % Recov A-B” value was found to be 79% and the “MDCK-MDR1: % Recov B-A” value is reported as 91%. For the same molecule, the efflux ratio at 120 min, 5 μM in the data set with MDR1 (setting [3]) was found to be 12. Also, in the data set on MDR1 (5 μM, 120 minutes), the Papp A→B at 120 min, 5 μM is 4.76 ×10⁻⁶ cm/s and the Papp B→A at 120 min, 5 μM was 56 ×10⁻⁶ cm/s.
Take `CN(c1nnc(-c2cc(F)c(-c3cn[nH]c3)cc2O)s1)[C@H]1C[C@@H]2CC[C@@H](N2)[C@H]1F` (single isomer, unassigned) [Compound E-6B]: in the data set with SMN2, the IC50 lay in the range of 0.01 to 15 nM and the EC50 was in the range of 16 to 50 nM. Further, the EC50 with SMN protein (setting [2]) lay in the range of 0.01 to 15 nM. In data set [1], the “MDCK-MDR1: % Recov A-B” value was found to be 62% and the “MDCK-MDR1: % Recov B-A” value is 76%. Moreover, the efflux ratio at 120 min, 5 μM with MDR1 (setting [3]) was 12. In the data set on MDR1 (5 μM, 120 minutes), this molecule came in with a Papp A→B at 120 min, 5 μM of 3.16 ×10⁻⁶ cm/s and a Papp B→A at 120 min, 5 μM of 39.3 ×10⁻⁶ cm/s.
Consider `CN(c1nnc(-c2ccc(-c3ccn(CF)c(=O)c3)cc2O)s1)[C@@H]1C[C@H]2CC[C@H](N2)[C@@H]1F` (racemic) [15A/15B, 4-[4-(5-{[(1S,2S,3R)-2-fluoro-8-azabicyclo[3.2.1]octan-3-yl](methyl)amino}-1,3,4-thiadiazol-2-yl)-3-hydroxyphenyl]-1-(fluoromethyl)-1,2-dihydropyridin-2-one and 4-[4-(5-{[(2R,3S,5S)-2-fluoro-8-azabicyclo[3.2.1]octan-3-yl](methyl)amino}-1,3,4-thiadiazol-2-yl)-3-hydroxyphenyl]-1-(fluoromethyl)-1,2-dihydropyridin-2-one], for which the “MDCK MDRP1 Efflux Ratio” value in data set [1] amounted to 66. In addition, the efflux ratio at 120 min, 5 μM in the data set on MDR1 (setting [4]) was 40.
`CN(c1nnc(-c2ccc(-c3ccn(C)c(=O)c3)cc2O)s1)[C@H]1C[C@@H]2CC[C@@H](N2)[C@H]1F` (single isomer, unassigned) [Compound E-4B]: in data set [1], the “MDCK-MDR1: % Recov A-B” value was determined as 115% and the “MDCK-MDR1: % Recov B-A” value is listed as 125%. Further, in the data set with MDR1 (setting [3]), the efflux ratio at 120 min, 5 μM is 40. In the data set with MDR1 (5 μM, 120 minutes), this molecule displayed a Papp A→B at 120 min, 5 μM of 1.81 ×10⁻⁶ cm/s and a Papp B→A at 120 min, 5 μM of 71.4 ×10⁻⁶ cm/s.
The matching figures for `CN(c1nnc(-c2ccc(-c3cn[nH]c3)cc2O)s1)[C@@H]1C[C@H]2CC[C@@H]([C@@H]1F)N2C` (single isomer, unassigned) [Compound E-23B]: 83%, 89%, 7, 5.69 ×10⁻⁶ cm/s and 39 ×10⁻⁶ cm/s.
For `CN(c1nnc(-c2ccc(-c3cc(=O)n(C)cn3)cc2O)s1)[C@@H]1C[C@H]2CC[C@H](N2)[C@@H]1F` (single isomer, unassigned) [Compound E-8A], in data set [1], the “MDCK-MDR1: % Recov A-B” value was determined as 116% and the “MDCK-MDR1: % Recov B-A” value is 114%. In the data set on MDR1 (setting [3]), the efflux ratio at 120 min, 5 μM is 21. Also, in the data set with MDR1 (5 μM, 120 minutes), the Papp A→B at 120 min, 5 μM is 1.31 ×10⁻⁶ cm/s and the Papp B→A at 120 min, 5 μM was found to be 27.8 ×10⁻⁶ cm/s.
The matching figures for `COc1cc(-c2ccc(-c3nnc(N(C)[C@H]4C[C@@H]5CC[C@@H](N5)[C@H]4F)s3)c(O)c2)ncn1` (single isomer, unassigned) [Compound E-5B]: 37%, 58%, 2, 6.59 ×10⁻⁶ cm/s and 9.86 ×10⁻⁶ cm/s.
Consider `CN(c1nnc(-c2ccc(-c3cnn(C)c3)cc2O)s1)[C@@H]1C[C@H]2CCC[C@H](N2)[C@@H]1F` (racemic) [1A/1B, 2-(5-(((1S,2S,3R,5R)-2-fluoro-9-azabicyclo[3.3.1]nonan-3-yl)(methyl)amino)-1,3,4-thiadiazol-2-yl)-5-(1-methyl-1H-pyrazol-4-yl)phenol and 2-(5-(((1R,2R,3S,5S)-2-fluoro-9-azabicyclo[3.3.1]nonan-3-yl)(methyl)amino)-1,3,4-thiadiazol-2-yl)-5-(1-methyl-1H-pyrazol-4-yl)phenol], for which the “MDCK MDRP1 Efflux Ratio” value in data set [1] was found to be 6. The efflux ratio at 120 min, 5 μM in the data set on MDR1 (setting [4]) was 5.5.
For the molecule `COc1cc(-c2ccc(-c3nnc(N(C)[C@H]4C[C@@H]5CC[C@@H](N5)[C@H]4F)s3)c(O)c2)ccn1` (single isomer, unassigned) [Compound E-11B], in data set [1], the “MDCK-MDR1: % Recov A-B” value was determined as 17% and the “MDCK-MDR1: % Recov B-A” value is 60%. Besides, the efflux ratio at 120 min, 5 μM in the data set on MDR1 (setting [3]) came to 2. In addition, in the data set with MDR1 (5 μM, 120 minutes), the apparent permeability from apical to basolateral (Papp A→B) at 120 min, 5 μM stood at 3.71 ×10⁻⁶ cm/s and the Papp B→A at 120 min, 5 μM is 6.07 ×10⁻⁶ cm/s.

These data come from patent publication US20230069804A1, “METHODS AND COMPOSITIONS FOR MODULATING SPLICING” (SkyHawk Therapeutics, Inc., priority 2019, published 2023).
